One data set deals with HL60. The data set can be described thus: Antiproliferative assay (Alamar blue, 72 h), HL60. It is filed as cell-based. The note with it: Homo sapiens, HL-60, HL60 cells, three independent experiments, SD < 10%, read-out: Antiproliferative effect IC50, HL60.
The next data set has as its system HCT116. Briefly: Antiproliferative assay (Alamar blue, 72 h), HCT116. In kind it is cell-based. The note with it: Homo sapiens, HCT-116, HCT116 cells, three independent experiments, SD < 10%, read-out: Antiproliferative effect IC50, HCT116. (The colour change of resazurin is a common sign of viable cells or microbes.)
In the next data set the test system is RPMI-8226. The data set can be described thus: Antiproliferative assay (Alamar blue, 72 h), RPMI-8226. The note with it: RPMI-8226 cells, three independent experiments, SD < 10%, read-out: Antiproliferative effect IC50, RPMI-8226. It is filed as cell-based, human. As to the method:
The cells were cultured in IMDM (Gibco) medium with 20% FBS (Lonsera), 100 U/mL penicillin, and 100 µg/mL streptomycin (Solarbio). All cells were maintained at 37 °C in a humidified atmosphere of 5% CO2 in air. Briefly, 100 µL cell suspension or completed medium was plated into a 96-well plate. Compounds were added and incubated for 72 h. Then, 22 µL Alamar blue solution (1 mM) was pipetted into each well of a 96-well plate, and the plate was incubated for an additional 5~6 h. The absorbance (OD) was read at 530/590 nm. Data were normalized to vehicle groups (DMSO) and represented as the means of three independent measurements with standard errors of <20%. The IC50 values were calculated using Prism 5.0.

In data set [1] the test system is acetylated histone 3 (H3). The data set can be described thus: Western blot, acetylated histone 3 in RPMI-8226 cells. It is filed as cell-based, human. The note with it: 24 h, 10 μM, compared to the vehicle. The protocol:
(§1) RPMI-8226 cells (1 × 10^6) were seeded overnight and incubated with compound 8f for 24 h on indicated concentrations. Cell extract was prepared by lysing cultured cells with a mammalian protein extraction reagent supplemented with EDTA-free protease inhibitor for 15 min. SDS-PAGE and immunoblot analysis were conducted as described. Antibodies for Ac-H3 (abcom, AB32129) and Ac-ɑ-tubulin (Cell Signaling, 2144) were used.
For orientation: Immunoblotting shows a protein as a band on a membrane.

The subject of the next data set is acetylated α-tubulin. Briefly: Western blot, acetylated α-tubulin in RPMI-8226 cells. In kind it is cell-based, human. The note with it: 24 h, 10 μM, compared to the vehicle. As to the method: as §1
The target of the next data set is T1, HDAC1 (Homo sapiens, UniProt Q13547).
T1 construct: purchased Reaction Biology Corporation
The data set can be described thus: In vitro HDAC enzyme assay (Reaction Biology Corporation), HDAC1. In kind it is biochemical. The following applies: Table 1; duplicate, SD < 15%.

The target of the next data set is T2, HDAC6 (Homo sapiens, UniProt Q9UBN7).
T2 construct: purchased Reaction Biology Corporation
T2 sequence (Q9UBN7 1-1215): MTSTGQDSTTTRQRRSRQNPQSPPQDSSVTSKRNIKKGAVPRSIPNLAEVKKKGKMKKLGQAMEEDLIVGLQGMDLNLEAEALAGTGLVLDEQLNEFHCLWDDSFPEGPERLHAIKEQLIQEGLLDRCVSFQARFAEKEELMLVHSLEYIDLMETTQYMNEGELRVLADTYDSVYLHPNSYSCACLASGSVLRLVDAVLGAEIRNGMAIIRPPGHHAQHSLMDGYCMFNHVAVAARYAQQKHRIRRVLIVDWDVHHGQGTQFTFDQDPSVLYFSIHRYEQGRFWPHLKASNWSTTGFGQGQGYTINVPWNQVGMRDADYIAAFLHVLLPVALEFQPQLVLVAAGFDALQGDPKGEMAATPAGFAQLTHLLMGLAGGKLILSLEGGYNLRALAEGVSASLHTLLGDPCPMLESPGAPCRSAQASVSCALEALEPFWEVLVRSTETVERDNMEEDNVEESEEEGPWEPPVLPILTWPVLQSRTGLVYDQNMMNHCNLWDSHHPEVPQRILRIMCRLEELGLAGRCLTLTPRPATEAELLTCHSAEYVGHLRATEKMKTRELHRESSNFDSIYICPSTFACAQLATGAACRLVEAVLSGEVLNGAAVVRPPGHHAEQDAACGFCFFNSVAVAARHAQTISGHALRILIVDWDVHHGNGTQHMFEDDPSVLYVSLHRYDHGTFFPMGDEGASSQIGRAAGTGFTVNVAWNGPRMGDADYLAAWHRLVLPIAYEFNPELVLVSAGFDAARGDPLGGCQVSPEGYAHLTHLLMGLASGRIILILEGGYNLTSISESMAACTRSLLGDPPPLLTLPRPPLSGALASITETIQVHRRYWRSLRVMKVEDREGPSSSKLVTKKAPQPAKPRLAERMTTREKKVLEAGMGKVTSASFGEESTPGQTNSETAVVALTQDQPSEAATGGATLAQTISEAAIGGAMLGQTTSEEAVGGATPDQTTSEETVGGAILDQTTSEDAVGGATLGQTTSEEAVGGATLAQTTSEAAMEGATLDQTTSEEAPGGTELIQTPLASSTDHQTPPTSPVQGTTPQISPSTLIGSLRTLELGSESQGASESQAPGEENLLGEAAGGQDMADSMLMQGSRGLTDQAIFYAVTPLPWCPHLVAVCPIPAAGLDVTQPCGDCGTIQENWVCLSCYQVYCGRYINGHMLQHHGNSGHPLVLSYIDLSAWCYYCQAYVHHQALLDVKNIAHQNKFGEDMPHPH
The data set can be described thus: In vitro HDAC enzyme assay (Reaction Biology Corporation), HDAC6. It is filed as biochemical. The note with it: Table 1.

pIC50: −log10 of the molar value. Where two headings read alike, the source gives them in different places.

T1 sequence (Q13547 whole entry): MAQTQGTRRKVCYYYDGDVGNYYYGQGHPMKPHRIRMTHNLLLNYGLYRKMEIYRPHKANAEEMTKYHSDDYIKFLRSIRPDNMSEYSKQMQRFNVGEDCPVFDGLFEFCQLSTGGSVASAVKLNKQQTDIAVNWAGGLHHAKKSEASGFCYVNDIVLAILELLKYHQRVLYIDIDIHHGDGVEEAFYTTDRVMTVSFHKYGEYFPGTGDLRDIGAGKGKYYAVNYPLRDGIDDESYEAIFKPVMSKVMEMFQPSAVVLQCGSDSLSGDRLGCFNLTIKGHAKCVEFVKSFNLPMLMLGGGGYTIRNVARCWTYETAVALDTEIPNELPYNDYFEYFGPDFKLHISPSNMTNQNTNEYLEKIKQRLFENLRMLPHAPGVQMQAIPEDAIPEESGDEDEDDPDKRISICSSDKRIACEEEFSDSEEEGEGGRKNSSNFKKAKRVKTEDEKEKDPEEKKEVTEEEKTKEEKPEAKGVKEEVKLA

Turning to `O=C(CCCCCCC(=O)N1CCc2c(nc(-c3ccccc3)nc2-c2ccccc2)C1)NO` [Compound 8a, 8-(2,4-Diphenyl-5,8-dihydropyrido [3,4-d]pyrimidin-7(6H)-yl)-N-hydroxy-8-oxooctanamide], the melting point (usually the temperature of the solid-liquid transition) was in the range of 115 to 117 °C. Besides, the pIC50 – broadly, the negative decadic logarithm of the IC50, by convention in mol/L – in the data set with HL60 was 4.90. For the same compound, the pIC50 in the data set with HCT116 was 4.63. Further, the pIC50 with RPMI-8226 (Homo sapiens) was 4.79.
As for `O=C(CCCCCCC(=O)Nc1ccccc1)NO` [SAHA, reference compound], the “levels of acetylated histone H3” value in data set [1] is “increased levels of both acetylated α-tubulin and acetylated histone H3 significantly”. Moreover, in the data set with RPMI-8226, the pIC50 is 6.18. Also, the “levels of acetylated α-tubulin” value in the data set on acetylated α-tubulin was “increased levels of both acetylated α-tubulin and acetylated histone H3 significantly”.
As to `Cc1ccc(-c2nc3c(c(-c4ccc(C)cc4)n2)CCN(C(=O)CCCCCCC(=O)NO)C3)cc1` [Compound 8b, 8-(2,4-di-p-tolyl-5,8-dihydropyrido [3,4-d]pyrimidin-7(6H)-yl)-N-hydroxy-8-oxooctanamide], the melting point was 110 to 112 °C.
For `COc1ccc(-c2nc3c(c(-c4ccc(OC)cc4)n2)CCN(C(=O)CCCCCCC(=O)NO)C3)cc1` [Compound 8c, 8-(2,4-Bis(4-methoxyphenyl)-5,8-dihydropyrido [3,4-d]pyrimidin-7(6H)-yl)-N-hydroxy-8-oxooctanamide], the melting point lay within 117 to 118 °C. Moreover, the pIC50 in the data set with HL60 was 5.42. For the same compound, the pIC50 in the data set on HCT116 was 5.33. In addition, the pIC50 in the data set on RPMI-8226 (Homo sapiens) is 5.33. Besides, the pIC50 against HDAC1 is 6.33.
`O=C(CCCCCCC(=O)N1CCc2c(nc(-c3ccc(C(F)(F)F)cc3)nc2-c2ccc(C(F)(F)F)cc2)C1)NO` [Compound 8h, 8-(2,4-Bis(4-(trifluoromethyl)phenyl)-5,8-dihydropyrido [3,4-d]pyrimidin-7(6H)-yl)-N-hydroxy-8-oxooctanamide] had a melting point of 145 to 146 °C. In addition, the “Selectivity Index” value at HDAC6 (HDAC6 against HDAC1) is listed as 26. On HDAC6 (duplicate, SD < 15%), this compound showed a pIC50 of 7.67. On HDAC1, this compound gave a pIC50 of 6.26.
The compound `O=C(CCCCCCC(=O)N1CCc2c(nc(-c3ccsc3)nc2-c2ccsc2)C1)NO` [Compound 8e, 8-(2,4-Di(thiophen-3-yl)-5,8-dihydropyrido [3,4-d]pyrimidin-7(6H)-yl)-N-hydroxy-8-oxooctanamide] yielded a melting point of 123 to 124 °C.
In turn, `O=C(CCCCCCC(=O)N1CCc2c(nc(-c3ccoc3)nc2-c2ccoc2)C1)NO` [Compound 8d, 8-(2,4-Di(furan-3-yl)-5,8-dihydropyrido [3,4-d]pyrimidin-7(6H)-yl)-N-hydroxy-8-oxooctanamide] returned a melting point of 104 to 106 °C.
On to `O=C(CCCCCCNC(=O)c1cnc(N(c2ccccc2)c2ccccc2)nc1)NO` [Compound 1, reference compound], for which the pIC50 in the data set on HL60 was 5.39; with HCT116 it was 5.19; in the data set on RPMI-8226 (Homo sapiens) it was 5.77.
As for `O=C(CCCCCCC(=O)N1CCc2c(nc(-c3cccs3)nc2-c2cccs2)C1)NO` [Compound 8g, 8-(2,4-Di(thiophen-2-yl)-5,8-dihydropyrido [3,4-d]pyrimidin-7(6H)-yl)-N-hydroxy-8-oxooctanamide], the melting point lay in the range of 128 to 129 °C.

The values above are taken from publication PMC10648541, “Design, Synthesis, and Antiproliferative Activity of Selective Histone Deacetylases 6 Inhibitors Containing a Tetrahydropyridopyrimidine Scaffold” (Molecules, 2023).
